Measurements from patent US8742078B2, “Antibacterial 4,6-substituted 6′, 6″ and 1 modified aminoglycoside analogs” (Isis Pharmaceuticals, Inc., priority 2008, dated 2014).

How the values were obtained:
[1] = tested on: P. aeruginosa 29248; test: MIC assay, P. aeruginosa 29248; assay type: cell-based; design: unit not given here; settings: range: complete growth inhibition at higher, viable cells at lower concentration; 20-24 hours at 37° C.
Method: (§1) The MIC assays are carried out in 150 μL volume in duplicate in 96-well clear flat-bottom plates. The bacterial suspension from an overnight culture growth in appropriate medium is added to a solution of test compound in 2.5% DMSO in water. Final bacterial inoculum is approximately 10^2-10^3 CFU/well. The percentage growth of the bacteria in test wells relative to that observed for control wells containing no compound is determined by measuring absorbance at 595 nm (A595) after 20-24 hours at 37° C. The MIC is determined as a range of concentration where complete inhibition of growth is observed at the higher concentration and bacterial cells are viable at the lower concentration. Both ampicillin and tetracycline are used as antibiotic positive controls in each screening assay. Both ampicillin and tetracycline are used as antibiotic-positive controls in each screening assay for S. pyogenes, E. coli imp-, E. coli, S. aureus, E. faecalis, K. pneumoniae and P. vulgaris. Ciprofloxacin is used as an antibiotic positive control in each screening assay for P. aeruginosa.

[2] = tested on: P. aeruginosa 27853; test: MIC assay, P. aeruginosa 27853; assay type: cell-based; design: unit not given here; settings: range: complete growth inhibition at higher, viable cells at lower concentration; 20-24 hours at 37° C.
Method: as §1

Molecule | MIC P aeruginosa 29248 [1] | MIC P aeruginosa 27853 [2]
NCC[C@H](O)C(=O)NC1CC(N)C(OC2OC(CN)C(O)C(O)C2O)C(O)C1OC1OC(CNC2CCCCC2)C(O)C(N)C1O (stereo partly shown) [IBIS00561976, 6″-deoxy-6″-cyclohexylamino-N-1-(4-amino-2-S-hydroxybutyryl)kanamycin A] | 5-10 | >40
CC(C)NC[C@H]1O[C@H](O[C@@H]2[C@@H](O)[C@H](O[C@H]3O[C@H](CN)[C@@H](O)[C@H](O)[C@H]3O)[C@@H](N)C[C@H]2NC(=O)[C@@H](O)CCN)[C@H](O)[C@@H](N)[C@@H]1O [IBIS00561975, 6″-deoxy-6″-isopropylamino-N-1-(4-amino-2-S-hydroxybutyryl)kanamycin A] | 10-20 | 10-20
NCC[C@H](O)C(=O)N[C@@H]1C[C@H](N)[C@@H](O[C@H]2O[C@H](CNCCc3ccccc3)[C@@H](O)[C@H](O)[C@H]2O)[C@H](O)[C@H]1O[C@H]1O[C@H](CO)[C@@H](O)[C@H](N)[C@H]1O [IBIS00561960, 6′-N-Phenethylamino-N-1-(4-amino-2-S-hydroxybutyryl)kanamycin A] | 5-10 | 2.5-5.0
NCC[C@H](O)C(=O)N[C@@H]1C[C@H](N)[C@@H](O[C@H]2O[C@H](CNCCCc3ccccc3)[C@@H](O)[C@H](O)[C@H]2O)[C@H](O)[C@H]1O[C@H]1O[C@H](CO)[C@@H](O)[C@H](N)[C@H]1O [IBIS00561962, 6′-N-Phenpropylamino-N-1-(4-amino-2-S-hydroxybutyryl)kanamycin A] | 2.5-5.0 | 2.5-5.0
6″-deoxy-6″-phenethylamino-N-1-(4-amino-2-S-hydroxybutyryl)kanamycin A [IBIS00561977] | 5-10 | 10-20
NC[C@H]1O[C@H](O[C@H]2[C@H](O)[C@@H](O[C@H]3O[C@H](CO)[C@@H](O)[C@H](N)[C@H]3O)[C@H](N)C[C@@H]2N)[C@H](O)[C@@H](O)[C@@H]1O [IBIS00262400, Kanamycin A, reference compound] | 2.5-5 | 1.25-2.5
CC(C)CNCC1OC(OC2C(N)CC(NC(=O)[C@@H](O)CCN)C(OC3OC(CO)C(O)C(N)C3O)C2O)C(O)C(O)C1O (stereo partly shown) [IBIS00561963, 6′-N-Isobutyl-N-1-(4-amino-2-S-hydroxybutyryl)kanamycin A] | >40 | 10-20
CN(C)CC1OC(OC2C(N)CC(NC(=O)[C@@H](O)CCN)C(OC3OC(CO)C(O)C(N)C3O)C2O)C(O)C(O)C1O (stereo partly shown) [IBIS00561961, 6′-N,N-Dimethyl-N-1-(4-amino-2-S-hydroxybutyryl)kanamycin A] | >40 | 10-20
[N-]=[N+]=NC[C@H]1O[C@H](O[C@@H]2[C@@H](O)[C@H](O[C@H]3O[C@H](CN)[C@@H](O)[C@H](O)[C@H]3O)[C@@H](N)C[C@H]2NC(=O)[C@@H](O)CCN)[C@H](O)[C@@H](N)[C@@H]1O [IBIS00561980, 6″-deoxy-6″-azido-N-1-(4-amino-2-S-hydroxybutyryl)kanamycin A] | 0.625-1.25 | 2.5-5.0
NCC[C@H](O)C(=O)N[C@@H]1C[C@H](N)[C@@H](O[C@H]2O[C@H](CN)[C@@H](O)[C@H](O)[C@H]2O)[C@H](O)[C@H]1O[C@H]1O[C@H](CO)[C@@H](O)[C@H](N)[C@H]1O [IBIS00404962, Amikacin, reference compound] | <0.625 | 1.25-2.5
CN(C)CCNCC1OC(OC2C(NC(=O)C(O)CCN)CC(N)C(OC3OC(CN)C(O)C(O)C3O)C2O)C(O)C(N)C1O (stereo not shown) [IBIS00561983, 6″-deoxy-6″-dimethylaminoethylamino-N-1-(4-amino-2-S-hydroxybutyryl)kanamycin A] | 1.25-2.5 | 1.25-2.5
CCCNC[C@H]1O[C@H](O[C@@H]2[C@@H](O)[C@H](O[C@H]3O[C@H](CN)[C@@H](O)[C@H](O)[C@H]3O)[C@@H](N)C[C@H]2NC(=O)[C@@H](O)CCN)[C@H](O)[C@@H](N)[C@@H]1O [IBIS00561982, 6″-deoxy-6″-propylamino-N-1-(4-amino-2-S-hydroxybutyryl)kanamycin A] | 2.5-5.0 | 5.0-10.0
NCC[C@H](O)C(=O)N[C@@H]1C[C@H](N)[C@@H](O[C@H]2O[C@H](CN)[C@@H](O)[C@H](O)[C@H]2O)[C@H](O)[C@H]1O[C@H]1O[C@H](CNCCNCc2ccccc2)[C@@H](O)[C@H](N)[C@H]1O [IBIS00561984, 6″-deoxy-6″-benzylaminoethylamino-N-1-(4-amino-2-S-hydroxybutyryl)kanamycin A] | 5.0-10.0 | 5.0-10.0
CNC[C@H]1O[C@H](O[C@@H]2[C@@H](O)[C@H](O[C@H]3O[C@H](CN)[C@@H](O)[C@H](O)[C@H]3O)[C@@H](N)C[C@H]2NC(=O)[C@@H](O)CCN)[C@H](O)[C@@H](N)[C@@H]1O [IBIS00561974, 6″-deoxy-6″-methylamino-N-1-(4-amino-2-S-hydroxybutyryl)kanamycin A] | 0.625-1.25 | 2.5-5.0
